In patent US10981926B2 (Janssen Pharmaceutica NV, priority 2016, dated 2021):

What was measured:
[1] = target: T1, F876L mutant Androgen Receptor (AR-F876L) (Homo sapiens (Human), UniProt P10275, F877L); test: LNCaP-AR-F876L ANT reporter assay (antagonist mode); type: cell-based; conditions: for IC50: pIC50 = −Log10(IC50 in Molar), read-out: LNCaP-AR-F876L ANT pIC50 (converted); for Emax: read-out: LNCaP-AR-F876L ANT MAX % Inh
[2] = target: T2, wild-type Androgen Receptor (AR-wt) (Homo sapiens (Human), UniProt P10275); test: LNCaP-AR-wt AG reporter assay (agonist mode); type: cell-based; conditions: for EC50: pEC50 = −Log10(EC50 in Molar), read-out: LNCaP-AR-wt AG pEC50 (converted); for Emax: read-out: LNCaP-AR-wt AG MAX % Stim
[3] = target: T1, F876L mutant Androgen Receptor (AR-F876L); test: LNCaP-AR-F876L AG reporter assay (agonist mode); type: cell-based; conditions: for EC50: pEC50 = −Log10(EC50 in Molar), read-out: LNCaP-AR-F876L AG pEC50 (converted); for Emax: read-out: LNCaP-AR-F876L AG MAX % Stim
rGABA-gated Cl− channel = test: GABA-Gated Cl Channel Antagonist Radioligand Binding Assay; design: species or system rat; conditions: 10 μM single point, [35S]-TBPS, cerebral cortex membrane homogenates
Description: GABA-gated C1 Chanel assays were performed at CEREP according to the following method. Membrane homogenates of cerebral cortex (120 μg protein) were incubated for 120 min at 22° C. with 3 nM […] in the absence or presence of the test compound in a buffer containing 50 mM Na2HPO4/KH2PO4 (pH 7.4) and 500 mM NaCl. Nonspecific binding was determined in the presence of 20 μM picrotoxinin. Following incubation, the samples were filtered rapidly under vacuum through glass fiber filters (GF/B, Packard) presoaked with 0.3% PEI and rinsed several times with ice-cold 50 mM Tris-HCl using a 96-sample cell harvester (Unifilter, Packard). The filters were dried then counted for radioactivity in a scintillation counter (Topcount, Packard) using a scintillation cocktail (Microscint 0, Packard). The results are expressed as a percent inhibition of the control radio ligand specific binding. The standard reference compound is picrotoxinin, which was tested in each experiment at several concentrations to obtain a competition curve from which its IC50 was calculated. In this assay, the following representative compounds disclosed herein had recorded activities at a 10 μM single point concentration in the GABA-gated Cl— Channel Binding Assay.

[4] = target: T2, wild-type Androgen Receptor (AR-wt); test: LNCaP-AR-wt ANT reporter assay (antagonist mode); type: cell-based; conditions: for IC50: pIC50 = −Log10(IC50 in Molar), read-out: LNCaP-AR-wt ANT pIC50 (converted); for Emax: read-out: LNCaP-AR-wt ANT MAX % Inh
[5] = maximum % inhibition of R1881 control response over the tested concentration range
[6] = maximum % stimulation (agonist response) over the tested concentration range
[7] = antagonist mode, maximum % inhibition of R1881 control response over tested concentration range
[8] = agonist mode, maximum % stimulation over tested concentration range

T2 sequence (P10275 whole entry): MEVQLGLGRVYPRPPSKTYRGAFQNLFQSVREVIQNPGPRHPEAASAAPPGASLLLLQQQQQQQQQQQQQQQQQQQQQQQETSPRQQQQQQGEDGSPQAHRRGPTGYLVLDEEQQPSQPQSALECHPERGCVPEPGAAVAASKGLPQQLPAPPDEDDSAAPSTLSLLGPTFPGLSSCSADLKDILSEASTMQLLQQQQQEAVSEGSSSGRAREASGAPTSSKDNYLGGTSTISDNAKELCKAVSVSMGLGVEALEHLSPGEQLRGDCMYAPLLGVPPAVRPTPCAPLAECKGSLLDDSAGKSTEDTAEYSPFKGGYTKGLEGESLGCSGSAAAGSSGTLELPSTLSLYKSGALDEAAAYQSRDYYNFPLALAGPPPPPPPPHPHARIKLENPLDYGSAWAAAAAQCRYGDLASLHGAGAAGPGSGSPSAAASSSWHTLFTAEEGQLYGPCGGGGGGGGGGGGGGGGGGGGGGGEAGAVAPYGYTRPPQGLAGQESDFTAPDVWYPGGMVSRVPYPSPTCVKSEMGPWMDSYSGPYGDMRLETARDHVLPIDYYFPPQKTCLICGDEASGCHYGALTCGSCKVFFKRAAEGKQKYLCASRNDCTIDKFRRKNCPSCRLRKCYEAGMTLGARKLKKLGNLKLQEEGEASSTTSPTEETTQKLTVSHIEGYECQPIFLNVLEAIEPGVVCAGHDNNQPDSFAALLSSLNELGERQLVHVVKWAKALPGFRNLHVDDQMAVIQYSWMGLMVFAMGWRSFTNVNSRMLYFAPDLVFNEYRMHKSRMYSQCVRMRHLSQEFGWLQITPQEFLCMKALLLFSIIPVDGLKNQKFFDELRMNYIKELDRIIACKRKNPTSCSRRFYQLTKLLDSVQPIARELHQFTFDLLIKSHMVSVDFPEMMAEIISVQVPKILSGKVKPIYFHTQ
T1 sequence (P10275 whole entry F877L): as the sequence (P10275 whole entry) above, with F877L counted along it

| Compound | IC50 ([1]; antagonist mode) | Emax [1, 5] | EC50 ([2]; agonist mode) | Emax [2, 6] | EC50 ([3]; agonist mode) | Emax [3, 6] | rGABA-gated Cl− channel % inh @10 μM (rGABA-gated Cl− channel) | IC50 ([4]; antagonist mode) | Emax [4, 5] | Emax [1, 7] | Emax [2, 8] | Emax [3, 8] | Emax [4, 7] |
| --- | --- | --- | --- | --- | --- | --- | --- | --- | --- | --- | --- | --- | --- |
| N#Cc1ncc(N2C(=O)C3(CCC3)N(c3ccc(O[C@@H]4CCN[C@@H](C(F)(F)F)C4)cc3)C2=S)cc1C(F)(F)F (racemic) [Cpd 106, 5-[5-oxo-7-thioxo-8-[4-[[(2RS,4RS)-2-(trifluoromethyl)-4-piperidyl]oxy]phenyl]-6,8-diazaspiro[3.4]octan-6-yl]-3-(trifluoromethyl)pyridine-2-carbonitrile] | 219 nM | 99.7% | > 15100 nM | 0.1% | > 15100 nM | 0.7% | 87.1% | 174 nM | 102% |  |  |  |  |
| CN1CCC(Oc2ccc(N3C(=S)N(c4cnc(C#N)c(C(F)(F)F)c4)C(=O)C34CCC4)cc2)CC1=O (racemic) [Cpd 189, (R,S)-5-[8-[4-[(1-methyl-2-oxo-4-piperidyl)oxy]phenyl]-5-oxo-7-thioxo-6,8-diazaspiro[3.4]octan-6-yl]-3-(trifluoromethyl)pyridine-2-carbonitrile] | 81.3 nM |  | > 15100 nM |  | > 15100 nM |  | 90.4% | 69.2 nM |  | 99.1% | 0% | 1.7% | 100% |
| N#Cc1ncc(N2C(=O)C3(CCC3)N(c3ccc(C4=CCCC(CO)O4)cc3)C2=S)cc1C(F)(F)F (stereo not drawn) [Cpd 103, 5-(5-(4-(2-(hydroxymethyl)-3,4-dihydro-2H-pyran-6-yl)phenyl)-8-oxo-6-thioxo-5,7-diazaspiro[3.4]octan-7-yl)-3-(trifluoromethyl)picolinonitrile] |  |  |  |  |  |  | 82.7% |  |  |  |  |  |  |
| N#Cc1ncc(N2C(=O)C3(CCC3)N(c3cnc(OC4CCN(CCO)CC4)nc3)C2=S)cc1C(F)(F)F [Cpd 252, 5-[8-[2-[[1-(2-hydroxyethyl)-4-piperidyl]oxy]pyrimidin-5-yl]-5-oxo-7-thioxo-6,8-diazaspiro[3.4]octan-6-yl]-3-(trifluoromethyl)pyridine-2-carbonitrile] | 832 nM |  | > 15100 nM |  | > 15100 nM |  |  | 407 nM |  | 100% | -0.1% | -0.1% | 0% |
| Cc1cc(N2C(=O)C3(CCC3)N(c3cnc(OC4CCN(CCO)CC4)nc3)C2=S)cnc1C#N [Cpd 254, 5-[8-[2-[[1-(2-hydroxyethyl)-4-piperidyl]oxy]pyrimidin-5-yl]-5-oxo-7-thioxo-6,8-diazaspiro[3,4]octan-6-yl]-3-methyl-pyridine-2-carbonitrile] | 708 nM |  | > 15100 nM |  | > 15100 nM |  |  | 891 nM |  | 99.3% | -0.1% | 0.4% | 0% |
| Cn1c(CCO)nc2cc(N3C(=S)N(c4cnc(C#N)c(C(F)(F)F)c4)C(=O)C34CCC4)ccc21 [Cpd 255, 5-[8-[2-(2-hydroxyethyl)-1-methyl-benzimidazol-5-yl]-5-oxo-7-thioxo-6,8-diazaspiro[3.4]octan-6-yl]-3-(trifluoromethyl)pyridine-2-carbonitrile] | 2750 nM |  | > 15100 nM |  | > 15100 nM |  |  | 2510 nM |  | 99% | 0.4% | 0.1% | 94.7% |
| CN1CCC(c2nc3cc(N4C(=S)N(c5cnc(C#N)c(C(F)(F)F)c5)C(=O)C45CCC5)ccc3[nH]2)CC1 [Cpd 256, 5-[8-[2-(1-methyl-4-piperidyl)-1H-benzimidazol-5-yl]-5-oxo-7-thioxo-6,8-diazaspiro[3.4]octan-6-yl]-3-(trifluoromethyl)pyridine-2-carbonitrile] | 1350 nM |  | > 15100 nM |  | > 15100 nM |  |  | 4790 nM |  | 96.8% | 0.4% | 0.6% | 95.9% |
